According to patent US20240383875A1, “Benzimidazole Pyridine Derivatives” (Hoffmann-La Roche Inc., priority 2022, published 2024):

Key:
Assay type in all cases: biochemical
SIK1 = SIK1 (Homo sapiens, UniProt P57059); experiment: Enzymatic activity assay SIK1, RapidFire mass spectrometry (phosphorylation of CHK-peptide); conditions: RapidFire MS, inhibition of SIK1; read-out: SIK1 RF IC50
Procedure: (§1) Assay description SIK1-3, RapidFire:
(§2) In the presence of SIK2 (resp. SIK1 or SIK3) and ATP the CHK-peptide ([…] with C-terminal arginine amide modification) were phosphorylated at one of the four feasible serine's. Only one phosphorylation is observed under the assay conditions. 60 nl of each compound dilution series (12 point; dilution factor 3, generally 30 μM to 170 pM) in DMSO were transferred by acoustic dispensing to the assay plate and 30 min pre-incubated (ambient temperature) after the addition of 5 μl SIK1 (5 nM) resp. 5 μl SIK2 (0.5 nM) or 7 μl SIK3 (1.5 nM) in assay-buffer (12.5 mM HEPES (pH 7.0), 10 mM magnesium acetate, 0.005% BSA). 10 μM CHK-peptide solution and 5 μl 100 μM ATP for SIK1 & SIK2 resp. 3 μl for SIK3 in assay-buffer were added and incubated ambient for 45 min. 40 μl 0.125% formic acid in water were added to quench the reaction. RapidFire (RF) Mass Spectrometry was utilized for data generation as described below. The multiple charged species (3-5 charges) for the phosphorylated and non-phosphorylated form measured by MRM (Multiple Reaction Monitoring; API5000 or 6500+) or EIC (Extracted Ion Current; QToF) were summed up and the ratio calculated (sum phosphorylated species/sum all species) for data evaluation. Normalization was performed by Genedata software based on the non-inhibition control DMSO and the commercially available SIK inhibitor @ 1 μM YKL-05-099 (CAS number 1936529-65-5). The results of the assay are expressed in half-maximal inhibitory concentrations (IC50s) and are summarized below in Table 1.
(§3) Samples were aspirated by vacuum for max. 600 ms and loaded to C4-cartridge (Agilent; #G9203A) for 3000 ms@1.5 ml/min with 0.1% formic acid in water. Afterwards samples were transferred to the APT5000 (APT6500+) or QToF mass spectrometer for 4000 ms@1.25 ml/min with 90% acetonitrile; 10% water; 0.007% TFA; 0.093 formic acid. The cartridge was reconditioned for additional 500 ms with 0.1% formic acid in water
(§4) All MS analyses using the following MS-setup in MRM mode: Electrospray positive; Ion Spray Voltage: 4000V; Temperature: 550° C.; Collision Gas: 5; Curtain Gas: 15; Gas1: 40; Gas 2: 42; EP: 10
(§5) MS-Setup Agilent QToF 6545
(§6) All MS analyses using the following MS-setup in Mode MS: Dual AJS Electrospray positive; VCap: 3000V; Drying & Sheath gas: 340° C.@81/min; Nebulizer: 60 psig; Nozzle Voltage: 2000V; Fragmentor: 130V; Skimmer: 35V; Oct1 RF Vpp: 700V; Ref masses on@5spectra/s

SIK2 = SIK2 (Homo sapiens, UniProt Q9H0K1); experiment: Enzymatic activity assay SIK2, RapidFire mass spectrometry (phosphorylation of CHK-peptide); conditions: RapidFire MS, inhibition of SIK2; read-out: SIK2 RF IC50
Procedure: as §1
as §2, with “Only one phosphorylation is observed under the assay conditions. 60 nl of each compound dilution series (12 point; dilution factor 3, generally 30 μM to 170 pM) in DMSO were transferred by acoustic dispensing to the assay plate and 30 min pre-incubated (ambient temperature) after the addition of 5 μl SIK1 (5 nM) resp.” left out, “1936529-65-5).” for “1936529-65-5). The results of the assay are expressed in half-maximal inhibitory concentrations (IC50s) and are summarized below in Table 1.”
as §3, §4, §5, §6

SIK3 = SIK3 (Homo sapiens, UniProt Q9Y2K2); experiment: Enzymatic activity assay SIK3, RapidFire mass spectrometry (phosphorylation of CHK-peptide); conditions: RapidFire MS, inhibition of SIK3; read-out: SIK3 RF IC50
Procedure: as §1, §2, §3, §4, §5, §6

Chain of SIK1 (P57059 whole entry): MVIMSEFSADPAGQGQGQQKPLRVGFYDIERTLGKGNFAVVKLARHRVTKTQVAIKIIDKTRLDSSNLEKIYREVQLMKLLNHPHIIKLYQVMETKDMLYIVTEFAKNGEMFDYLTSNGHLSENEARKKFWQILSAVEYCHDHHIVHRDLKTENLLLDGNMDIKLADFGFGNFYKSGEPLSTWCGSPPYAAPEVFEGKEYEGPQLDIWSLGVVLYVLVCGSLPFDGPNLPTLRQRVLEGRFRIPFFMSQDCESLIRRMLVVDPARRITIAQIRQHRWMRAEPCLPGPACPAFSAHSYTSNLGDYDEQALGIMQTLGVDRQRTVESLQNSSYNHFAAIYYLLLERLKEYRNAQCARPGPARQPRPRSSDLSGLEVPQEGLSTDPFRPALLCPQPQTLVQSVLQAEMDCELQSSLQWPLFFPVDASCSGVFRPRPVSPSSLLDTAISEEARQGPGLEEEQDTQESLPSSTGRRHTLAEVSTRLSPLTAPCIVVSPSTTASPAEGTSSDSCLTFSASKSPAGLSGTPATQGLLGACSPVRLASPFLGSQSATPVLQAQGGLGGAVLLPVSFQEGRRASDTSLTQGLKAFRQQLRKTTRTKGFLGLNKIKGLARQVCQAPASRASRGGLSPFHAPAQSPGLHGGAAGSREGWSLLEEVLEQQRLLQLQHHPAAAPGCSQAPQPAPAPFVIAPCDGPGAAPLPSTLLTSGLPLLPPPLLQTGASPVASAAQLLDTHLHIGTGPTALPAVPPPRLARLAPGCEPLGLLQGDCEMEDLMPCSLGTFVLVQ
Chain of SIK3 (Q9Y2K2 whole entry): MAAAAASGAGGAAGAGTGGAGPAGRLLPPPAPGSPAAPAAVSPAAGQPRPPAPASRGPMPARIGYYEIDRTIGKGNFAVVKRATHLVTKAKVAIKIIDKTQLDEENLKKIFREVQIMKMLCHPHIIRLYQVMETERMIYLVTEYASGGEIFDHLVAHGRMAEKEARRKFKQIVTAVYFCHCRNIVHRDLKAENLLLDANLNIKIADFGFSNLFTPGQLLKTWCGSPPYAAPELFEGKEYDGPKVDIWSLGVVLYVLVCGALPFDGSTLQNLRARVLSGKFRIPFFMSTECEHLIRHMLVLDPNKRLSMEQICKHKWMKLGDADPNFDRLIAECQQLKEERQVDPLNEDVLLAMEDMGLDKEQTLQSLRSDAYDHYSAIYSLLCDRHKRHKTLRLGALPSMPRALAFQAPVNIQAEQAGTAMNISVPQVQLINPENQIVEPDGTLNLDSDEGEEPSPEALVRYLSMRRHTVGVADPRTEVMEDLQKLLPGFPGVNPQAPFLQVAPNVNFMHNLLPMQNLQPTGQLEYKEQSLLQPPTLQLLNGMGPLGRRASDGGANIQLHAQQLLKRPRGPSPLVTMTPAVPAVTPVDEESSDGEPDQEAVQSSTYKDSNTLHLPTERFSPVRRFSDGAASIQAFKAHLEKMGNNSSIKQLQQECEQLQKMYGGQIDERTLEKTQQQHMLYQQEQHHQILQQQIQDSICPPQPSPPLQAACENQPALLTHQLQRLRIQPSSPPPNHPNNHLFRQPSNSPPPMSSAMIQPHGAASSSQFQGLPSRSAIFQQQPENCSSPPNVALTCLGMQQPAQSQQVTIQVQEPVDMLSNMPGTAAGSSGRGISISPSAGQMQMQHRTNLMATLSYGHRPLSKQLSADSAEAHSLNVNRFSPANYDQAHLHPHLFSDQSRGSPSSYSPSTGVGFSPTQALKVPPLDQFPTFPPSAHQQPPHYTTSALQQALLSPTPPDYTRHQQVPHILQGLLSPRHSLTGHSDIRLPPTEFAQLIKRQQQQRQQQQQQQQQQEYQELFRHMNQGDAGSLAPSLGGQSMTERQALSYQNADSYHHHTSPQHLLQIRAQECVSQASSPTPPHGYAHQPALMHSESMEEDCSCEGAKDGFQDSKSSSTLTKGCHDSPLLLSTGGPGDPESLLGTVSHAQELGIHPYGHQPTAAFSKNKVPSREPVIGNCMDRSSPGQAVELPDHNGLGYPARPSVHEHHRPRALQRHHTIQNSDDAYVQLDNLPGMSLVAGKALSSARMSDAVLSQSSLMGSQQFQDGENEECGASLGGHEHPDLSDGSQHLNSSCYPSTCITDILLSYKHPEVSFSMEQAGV
Chain of SIK2 (Q9H0K1 whole entry): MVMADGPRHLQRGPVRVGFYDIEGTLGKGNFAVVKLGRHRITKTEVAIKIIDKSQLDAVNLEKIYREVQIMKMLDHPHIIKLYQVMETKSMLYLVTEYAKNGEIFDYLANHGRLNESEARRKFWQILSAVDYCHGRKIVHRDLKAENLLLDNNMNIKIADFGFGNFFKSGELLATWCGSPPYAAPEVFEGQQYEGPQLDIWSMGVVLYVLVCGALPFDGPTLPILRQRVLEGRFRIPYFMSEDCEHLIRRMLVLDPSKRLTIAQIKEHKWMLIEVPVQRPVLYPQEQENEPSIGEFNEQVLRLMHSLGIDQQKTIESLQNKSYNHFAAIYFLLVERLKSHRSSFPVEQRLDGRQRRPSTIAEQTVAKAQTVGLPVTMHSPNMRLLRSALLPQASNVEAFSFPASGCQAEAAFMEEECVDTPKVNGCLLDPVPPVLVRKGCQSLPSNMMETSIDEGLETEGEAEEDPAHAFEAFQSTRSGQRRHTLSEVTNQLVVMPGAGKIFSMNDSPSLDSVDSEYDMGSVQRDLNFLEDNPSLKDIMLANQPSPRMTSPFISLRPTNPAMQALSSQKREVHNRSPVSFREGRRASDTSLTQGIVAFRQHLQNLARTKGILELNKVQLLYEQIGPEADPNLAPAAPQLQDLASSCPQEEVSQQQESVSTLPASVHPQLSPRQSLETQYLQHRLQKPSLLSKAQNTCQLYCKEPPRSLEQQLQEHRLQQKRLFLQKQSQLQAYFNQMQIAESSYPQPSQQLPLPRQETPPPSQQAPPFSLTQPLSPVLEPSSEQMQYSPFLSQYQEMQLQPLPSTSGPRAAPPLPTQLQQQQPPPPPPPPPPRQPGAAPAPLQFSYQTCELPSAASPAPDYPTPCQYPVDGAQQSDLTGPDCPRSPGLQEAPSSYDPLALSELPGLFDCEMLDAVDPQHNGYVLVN

SMILES	IC50 (SIK1)	IC50 (SIK2)	IC50 (SIK3)
Cc1ccc(Nc2ccc3c(c2)ncn3-c2ccc(C(C)O)c(N3CC(C#N)C4(CCC4)C3)n2)nn1 (centres unmarked) [Example 359, 6-[3-(1-hydroxyethyl)-6-[5-[(6-methylpyridazin-3-yl)amino]benzimidazol-1-yl]-2-pyridyl]-6-azaspiro[3.4]octane-8-carbonitrile]	1170 nM	25.3 nM	4.6 nM
Cc1cc(C#N)nn1-c1nc(-n2cnc3cc(-c4ccc5c(n4)C(=O)N(C)C5)ccc32)ccc1C(C)O (centres unmarked) [Example 366, 1-[3-(1-hydroxyethyl)-6-[5-(6-methyl-7-oxo-5H-pyrrolo[3,4-b]pyridin-2-yl)benzimidazol-1-yl]-2-pyridyl]-5-methyl-pyrazole-3-carbonitrile]	133 nM	58.2 nM	23.3 nM
Cc1cc(C#N)nn1-c1nc(-n2cnc3cc(Nc4nccnn4)ccc32)ccc1C(C)O (centres unmarked) [Example 119, 1-[3-(1-Hydroxyethyl)-6-[5-(1,2,4-triazin-3-ylamino)benzimidazol-1-yl]-2-pyridyl]-5-methyl-pyrazole-3-carbonitrile]	12 nM	1.8 nM	1.6 nM
Cc1cc(-c2nc(-n3cnc4cc(Nc5ccc(C)nn5)ccc43)ccc2C(C)O)cnn1 (centres unmarked) [Example 135, 1-[2-(6-Methylpyridazin-4-yl)-6-[5-[(6-methylpyridazin-3-yl)amino]benzimidazol-1-yl]-3-pyridyl]ethanol]	27700 nM	589 nM	167 nM
Cc1cc(C#N)nn1-c1nc(-n2cnc3cc(F)c(Nc4ccc(F)c(F)c4F)cc32)ccc1C(C)O (centres unmarked) [Example 379, 1-[6-[5-fluoro-6-(2,3,4-trifluoroanilino)benzimidazol-1-yl]-3-(1-hydroxyethyl)-2-pyridyl]-5-methyl-pyrazole-3-carbonitrile]	1 nM	0.2 nM	0.4 nM
Cc1cc(C#N)nn1-c1nc(-n2cnc3cc(N4CCCC45COC5)ccc32)ccc1C(C)O (centres unmarked) [Example 296, 1-[3-(1-hydroxyethyl)-6-[5-(2-oxa-5-azaspiro[3.4]octan-5-l)benzimidazol-1-yl]-2-pyridyl]-5-methyl-pyrazole-3-carbonitrile]	137 nM	77 nM	90 nM
COc1cc2ncn(-c3ccc(C(O)C4CC4)c(-c4cccc(Cl)c4)n3)c2cc1OC (centres unmarked) [Example 25, (2-(3-Chlorophenyl)-6-(5,6-dimethoxy-1H-benzo[d]imidazol-1-yl)pyridin-3-yl)(cyclopropyl)methanol]	777 nM	605 nM	987 nM
Cc1ccc(Nc2ccc3c(c2)ncn3-c2ccc(C(O)C(F)(F)F)c(-n3nc(C#N)cc3C)n2)nn1 (centres unmarked) [Example 148, 5-Methyl-1-[6-[5-[(6-methylpyridazin-3-yl)amino]benzimidazol-1-yl]-3-(2,2,2-trifluoro-1-hydroxy-ethyl)-2-pyridyl]pyrazole-3-carbonitrile]	663 nM	10.3 nM	1.2 nM
Cc1ccc(Nc2cc3ncn(-c4ccc(C(C)O)c(-c5cn(CC(F)(F)F)nc5C)n4)c3cc2F)nn1 (centres unmarked) [Example 302, 1-[6-[6-fluoro-5-[(6-methylpyridazin-3-yl)amino]benzimidazol-1-yl]-2-[3-methyl-1-(2,2,2-trifluoroethyl)pyrazol-4-yl]-3-pyridyl]ethanol]	409 nM	0.7 nM	1.1 nM
COc1cc2ncn(-c3ccc(CO)c(N4CCCC4=O)n3)c2cc1OC [Example 33, 1-(6-(5,6-Dimethoxy-1H-benzo[d]imidazol-1-yl)-3-(hydroxymethyl)pyridin-2-yl)pyrrolidin-2-one]	320 nM	402 nM	1940 nM
Cc1ccc(Nc2ccc3c(c2)ncn3-c2ccc(C(C)O)c(-c3ccnn3C3CC3(F)F)n2)nn1 (centres unmarked) [Example 227, 1-[2-[2-(2,2-Difluorocyclopropyl)pyrazol-3-yl]-6-[5-[(6-methylpyridazin-3-yl)amino]benzimidazol-1-yl]-3-pyridyl]ethanol; formic acid]	4170 nM	225 nM	28.6 nM
Cc1ccc(Nc2cc3ncn(-c4ccc(C(C)O)c(-n5nc(C#N)cc5C)n4)c3cc2F)nn1 (centres unmarked) [Example 93, 1-[6-[6-Fluoro-5-[(6-methylpyridazin-3-yl)amino]benzimidazol-1-yl]-3-(1-hydroxyethyl)-2-pyridyl]-5-methyl-pyrazole-3-carbonitrile]	97 nM	0.5 nM	0.6 nM
Cc1ccc(Nc2cc3c(cc2F)ncn3-c2ccc(C(C)O)c(-n3nc(Cl)cc3C)n2)nn1 (centres unmarked) [Example 354, 1-[2-(3-chloro-5-methyl-pyrazol-1-yl)-6-[5-fluoro-6-[(6-methylpyridazin-3-yl)amino]benzimidazol-1-yl]-3-pyridyl]ethanol]	225 nM	78.6 nM	75.9 nM
Cc1ccc(Nc2ccc3c(c2)ncn3-c2ccc(C(C)O)c(OC3CNCC3(F)F)n2)nn1 (centres unmarked) [Example 393, 1-[2-(4,4-difluoropyrrolidin-3-yl)oxy-6-[5-[(6-methylpyridazin-3-yl)amino]benzimidazol-1-yl]-3-pyridyl]ethanol]	750 nM	25.2 nM	5.5 nM
Cc1ccc(Nc2ccc3c(c2)ncn3-c2ccc(C(C)O)c(N3CC[C@H]4NCC[C@@H]43)n2)nn1 (mixture of isomers) [Example 127, 1-[6-[5-[(6-Methylpyridazin-3-yl)amino]benzimidazol-1-yl]-2-[rac-trans-2,3,3a,5,6,6a-hexahydro-1H-pyrrolo[3,2-b]pyrrol-4-yl]-3-pyridyl]ethanol]	457 nM	13.7 nM	15.5 nM
Cc1ccc(Nc2ccc3c(c2)ncn3-c2ccc([C@@H](C)O)c(-n3nc(C#N)cc3C)n2)nn1 [Example 110, 5-Methyl-1-[6-[5-[(6-methylpyridazin-3-yl)amino]benzimidazol-1-yl]-3-[(1R)-1-hydroxyethyl]-2-pyridyl]pyrazole-3-carbonitrile]	26 nM		0.2 nM
Cc1ccc(Nc2ccc3c(c2)ncn3-c2ccc([C@H](C)O)c(-n3nc(C#N)cc3C)n2)nn1 [Example 109, 5-Methyl-1-[6-[5-[(6-methylpyridazin-3-yl)amino]benzimidazol-1-yl]-3-[(1S)-1-hydroxyethyl]-2-pyridyl]pyrazole-3-carbonitrile]	1800 nM		18.6 nM
Cc1ccc(Nc2ccc3c(c2)ncn3-c2ccc(C(C)O)c(-n3nc(C#N)cc3C)n2)nn1 (centres unmarked) [Example 64, 1-[3-(1-Hydroxyethyl)-6-[5-[(6-methylpyridazin-3-yl)amino]benzimidazol-1-yl]-2-pyridyl]-5-methyl-pyrazole-3-carbonitrile]	59 nM		0.6 nM
Cc1ccc(Nc2ccc3c(c2)ncn3-c2ccc(C(C)O)c(-c3cccnc3-c3cn[nH]c3)n2)nn1 (centres unmarked) [Example 186, 1-[6-[5-[(6-Methylpyridazin-3-yl)amino]benzimidazol-1-yl]-2-[2-(1H-pyrazol-4-yl)-3-pyridyl]-3-pyridyl]ethanol]		1240 nM	1060 nM
